Experimental data from US5700640A, “Inducers of gamma globin gene expression and screening assays therefor” (priority 1994, dated 1997).

Assays:
[1] = tested on: gamma globin gene expression (gamma3'PE reporter) in K562 cells; assay: gamma globin promoter-luciferase reporter assay in stably transfected gamma3'PE K562 cells
Experimental: The gamma globin 5' promoter and 3' enhancer fragments, alone or in combination with each other or another fragment, were inserted into restriction endonuclease sites flanking the coding sequences of the luciferase gene in pGL2 using standard recombinant DNA techniques (pGL2 was obtained commercially from Promega Biotech). Constructs were prepared which contained: 1) the gamma globin promoter alone upstream of the luciferase gene (gamma); 2) the gamma globin promoter upstream of the luciferase gene and the gamma globin 3' enhancer downstream of the luciferase gene (gamma3'PE); 3) the gamma globin promoter upstream of the luciferase gene and the SV40 enhancer downstream of the luciferase gene (gammaSV40); 4) the beta globin promoter upstream of the luciferase gene and the gamma globin 3' enhancer downstream of the luciferase gene Coeta3'PE); and 5) hypersensitive sites 2 and 3 G-IS2 and HS3) of the 5' globin enhancer upstream of the gamma globin promoter upstream of the luciferase gene and the gamma globin 3' enhancer downstream of the luciferase gene (HS2/3gamma3'PE). These constructs are illustrated schematically in FIG. 2.
The gamma globin-luciferase reporter gene constructs described in Example 1 were introduced into a human erythroleukemia cell line K562 (ATCC No. CCL 243). To create stable transfectants, K562 cells (5×10^6) in log phase were suspended in 400 μl HEPES buffered saline and then combined with 33.5 μg salmon testes DNA (Sigma), 1.5 μg neo plasmid (pPMT) and 15 μg reporter gene plasmid supercoiled that had been co-precipitated and suspended in 400 μl HEPES buffered saline. The DNA-cell mixture was electroporated at settings of 0.25 KV and 960 μFD using a Gene Pulser (BioRad Inc.) electropotation apparatus.
The cells were allowed to recover 10 minutes at room temperature, then added to 10 ml complete RPMI cell culture medium. Cell debris was removed by centrifugation at 1000 rpm for 5 minutes. The live cells were suspended in 20 ml RPMI in 2×10 cm dishes and grown in non-selective media for 48 hours. Stably transfected cells were then selected by growing the cells in media containing 300 μg/ml G418 for about one month. During this time the cells were split 1:5 every 3 to 4 days. Once the lines were stable, they were carried in 100 μg/ml G418. The cell lines were designated according to the reporter gene construct that was introduced into the cell line. For example, a cell line carrying the gamma'3PE construct was designated gamma3'PE. Transient transfections were carried out similarly except that the neo plasmid was omitted from the electroporation solution and the cells were not subjected to G418 selection.
K562 host cells carrying gamma globin-reporter gene constructs were used to lo screen compounds for their ability to induce globin gene expression, as measured by increased reporter gene activity in the host cells upon treatment with the compound. The host cells described in Example 2 were grown to log phase cells and plated at a density of 2×10^5 /ml in RPMI media without G418. After 24 hours, compounds to be assayed for their ability to induce globin gene expression were dissolved in RPMI media at a concentration of 5 mM and added to the K562 stable transfectants. Mock-treated stably transfected K562 cells served as a negative control. The cells were incubated with the test compounds at 37° C. for various time periods (e.g., 24, 50, 74 and 122 hours).
After induction with the test compounds, the cells were harvested, lysed and assayed for reporter gene activity (i.e., luciferase activity) as follows. Cells were collected, washed once with PBS and lysed in 200 μl Cell Culture Lysis 1 X Reagent (Promega Luciferase Assay System) consisting of 25 mM Tris-Phosphate pH 7.8; 2 mM DTT; 2 mM 1,2-diaminocyclohexane-N,N,N,N-tetraacetic acid; 10% glycerol; 1% Triton X-100.

[2] = Blau et al. 1993; cited from earlier work
[3] = tested on: GATA-1 mRNA; assay: GATA-1 mRNA level (Northern) with BA and/or cycloheximide in gamma3'PE cells; type: cell-based, human; conditions: BA 5 mM, 5 hr
Experimental: (§1) To determine if BA exerts its inductive effects by acting directly on pre-existing proteins in the cells, the effect of the protein synthesis inhibitor cycloheximide (CHX) on BA-induced expression of RNA was analyzed. In these experiments, gamma3'PE cells were incubated with 150 μg/ml CHX for 2 hr prior to addition of BA (5 mM). Control cells were incubated with either CHX or BA alone or were mock incubated. Cells were harvested 5 hr later for preparation of total RNA. RNA samples were electrophoresed, transferred to nitrocellulose and hybridized to a ^32 P-labeled luciferase cDNA probe as described in Example 4. The radioactive signals on the filter were quantitated using a BioRad GS-250 Molecular Imager and mRNA levels were normalized to values obtained for mock treated samples. The results are presented graphically in FIG. 12, Panel A. BA treatment alone increased gamma globin-regulated luciferase mRNA by approximately 6 fold.
The results, normalized to mock treated samples, are depicted graphically in FIG. 12, Panel B. In contrast to luciferase mRNA which was induced by BA treatment, the level of GATA-1 RNA decreases about 3 fold in response to BA treatment.

[4] = tested on: gamma globin-regulated luciferase mRNA; assay: cells; type: cell-based, human; conditions: Homo sapiens, K562, 5 h, read-out: increase in luciferase mRNA
Experimental: Total RNA was prepared by the method of McDonald as described in Sambrook et al., (1989) Molecular Cloning: A Laboratory Manual, 2nd Edition, Cold Spring Harbor Laboratory Press. 10 μg total cellular RNA was electrophoresed through agarose gels containing 3.3% formaldehyde. The electrophoresed RNA was then transferred to nitrocellulose filters by standard methods. Each sample was hybridized to specific probes for gamma globin mRNA, mRNA encoding the erythroid specific transcription factor GATA-1 and 28S ribosomal RNA (which was used for standardization). The gamma globin and GATA-1 probes were cDNA probes, which were labeled with ^32 p by random priming reactions (Promega Biotech Inc.). The 28S ribosomal RNA probe was an oligonucleotide having the sequence 5' […] 3' (SEQ ID NO: 3), which was labeled by 5' end labeling using T4 polynucleotide kinase (New England Biolabs). Nucleotide probes were hybridized to the RNA nitrocellulose filters according to standard techniques. After hybridization, radioactive signals on the nitrocellulose filters were directly quantified using a BioRad GS-250 Molecular Imager. mRNA hybridization intensities were normalized to the amount of 28S ribosomal RNA present for each sample. The results are summarized below in Table 1:
as §1, with “The results are presented graphically in FIG. 12, Panel A. BA treatment alone increased gamma globin-regulated luciferase mRNA by approximately 6 fold.” left out

Q: For `CCCC(=O)O` [BA, butyric acid], which “induction of gamma-globin reporter gene expression over time course (FIG. 3)” value ([1]; 5 mM, 24-122 hr, normalized to viable cells) is on record?
A: Its value is “initially a strong inducer of gamma-globin gene expression”.

Q: What about the “level of induction by the conclusion of the time course (FIG. 3)” value ([1]; 5 mM, normalized to viable cells) of the same compound?
A: The value was “dropped below the level of uninduced cells by the conclusion of the time course”.

Q: What about the fold induction at 5000 µM ([1]; Homo sapiens, K562, 72 h, read-out: fold induction of reporter gene activity (FIG. 6)) of the same compound?
A: Its fold induction at 5000 µM is about 2.

Q: And the “toxicity of high dosages” value [2]?
A: Its value is “associated with toxicity, in particular neurologic toxicity”.

Q: And the “decrease in GATA-1 RNA level” value [3]?
A: Its value is “about 3 fold”.

Q: And the fold induction at 5000 µM [4]?
A: Its fold induction at 5000 µM is about 6.
